Measured values published in patent US10959432B2, “Microbiocidal oxadiazole derivatives” (Syngenta Participations AG, priority 2016, dated 2021).
Where “and” joins values, the source holds several entries; their conditions need not be identical. Equal values may be shown once.

Legend:
[1] = system: Puccinia recondita f. sp. tritici; assay: Fungicidal activity against Puccinia recondita f. sp. tritici / wheat / leaf disc preventative (brown rust); type: in vivo; settings: foliar, 200 ppm in the applied formulation, wheat leaf segments cv. Kanzler, preventative (inoculated 1 day after application), assessed 7 to 9 days after application, read-out: disease control compared to untreated control leaf disks
How it was run: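 Preventative leaf-segment test: compound sprayed at 200 ppm onto wheat (cv. Kanzler) segments, brown rust spores applied 1 day after. Kept at 19C and 75% rh under 12 h light/dark cycles; disease control versus untreated check read 7 to 9 days post-application.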

[2] = system: Puccinia recondita f. sp. tritici; assay: Fungicidal activity against Puccinia recondita f. sp. tritici / wheat / leaf disc curative (brown rust); type: in vivo; settings: foliar, 200 ppm in the applied formulation, wheat leaf segments cv. Kanzler, curative (applied 1 day after inoculation), assessed 6 to 8 days after application, read-out: disease control compared to untreated control leaf disks
How it was run: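 Curative test: compound, diluted from DMSO stock into water, applied one day after spore inoculation of wheat (cv. Kanzler) leaf segments kept on agar in darkness at 19° C. and 75% RH. Climate-cabinet incubation (19° C., 75% RH, 12 h photoperiod); disease control relative to untreated read 6–8 days post-application.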

Phakopsora pachyrhizi = assay: Fungicidal activity against Phakopsora pachyrhizi / soybean / leaf disc preventative (Asian soybean rust); type: in vivo; settings: foliar, 200 ppm in the applied formulation, soybean leaf disks, preventative (inoculated one day after application), assessed 12 to 14 days after application, read-out: disease control compared to untreated control leaf disks
How it was run: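 Preventative test: compound applied to soybean leaf discs a day before spore inoculation of the lower surface. Discs kept at 20° C and 75% rh, first 24-36 h in darkness, then under 12 h light/day; disease control relative to untreated discs rated 12 to 14 days post-application.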

Uromyces viciae-fabae = assay: Fungicidal activity against Uromyces viciae-fabae / field bean / leaf disc preventative (faba-bean rust); type: in vivo; settings: foliar, 288 h, 100 ppm in the applied formulation, field bean leaf discs, preventative (inoculated two hours after application), assessed 12 days after application, read-out: disease control compared to untreated control leaf discs
How it was run: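 Field bean leaf discs on water agar treated with 10 μl compound in acetone plus spreader, then spray-inoculated on the lower surface with Uromyces viciae-fabae spores 2 h later. Incubation at 22 °C, 18 h day, 70% RH; percent disease control versus untreated scored 12 days after application, compounds at 100 ppm.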

[3] = system: Glomerella laqenarium (Colletotrichum lagenarium); assay: Fungicidal activity against Glomerella lagenarium (Colletotrichum lagenarium) liquid culture / cucumber / preventative (anthracnose); type: cell-based; settings: Colletotrichum orbiculare; 20 ppm in the applied formulation; liquid culture in PDB, 24° C., 3 to 4 days after application; read-out: disease control compared to untreated control (inhibition of growth measured photometrically)
How it was run: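 Test compound, applied from DMSO solution, is combined with PDB containing conidia taken from cryogenic storage. After 3–4 days at 24 °C, growth is measured photometrically and antifungal activity expressed as percent relative to untreated control.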

SMILES | melting point | pest or weed control at 200 ppm [1] [%] | pest or weed control at 200 ppm [2] [%] | pest or weed control at 200 ppm (Phakopsora pachyrhizi) [%] | pest or weed control at 100 ppm (Uromyces viciae-fabae) [%] | inhibition at 20 ppm [3] [%]
CC1CC(NC(=O)c2ccc(-c3noc(C(F)(F)F)n3)cc2F)=NO1 (stereo not drawn) [Compound 1b.15, 2-fluoro-N-(5-methyl-4,5-dihydroisoxazol-3-yl)-4-[5-(trifluoromethyl)-1,2,4-oxadiazol-3-yl]benzamide] | 152.5 to 155.9 °C | ≥ 80 | ≥ 80 | ≥ 80 | ≥ 80 | ≥ 80
O=C(NCC1CC1)c1ccc(-c2noc(C(F)(F)F)n2)cc1F [Compound 2b.1, N-(cyclopropylmethyl)-2-fluoro-4-[5-(trifluoromethyl)-1,2,4-oxadiazol-3-yl]benzamide] | 113.5 to 114.7 °C | ≥ 80 | ≥ 80 | ≥ 80 | ≥ 80 | ≥ 80
C#CCNC(=O)c1ccc(-c2noc(C(F)(F)F)n2)cc1F [Compound 3b.4, 2-fluoro-N-prop-2-ynyl-4-[5-(trifluoromethyl)-1,2,4-oxadiazol-3-yl]benzamide] | 128.2 to 129.4 °C | ≥ 80 | ≥ 80 | ≥ 80 | ≥ 80 | ≥ 80
C=CCNC(=O)c1ccc(-c2noc(C(F)(F)F)n2)cc1F [Compound 3b.3, N-allyl-2-fluoro-4-[5-(trifluoromethyl)-1,2,4-oxadiazol-3-yl]benzamide] | 108 to 109.3 °C | ≥ 80 | ≥ 80 | ≥ 80 | ≥ 80 | ≥ 80
O=C(NCC1CCCO1)c1ccc(-c2noc(C(F)(F)F)n2)cc1F (stereo not drawn) [Compound 1b.17, 2-fluoro-N-(tetrahydrofuran-2-ylmethyl)-4-[5-(trifluoromethyl)-1,2,4-oxadiazol-3-yl]benzamide] | 95.6 to 96.7 °C | ≥ 80 | ≥ 80 | ≥ 80 | ≥ 80 | ≥ 80
O=C(NCc1cnc(Cl)s1)c1ccc(-c2noc(C(F)(F)F)n2)cc1F [Compound 5b.14, N-[(2-chlorothiazol-5-yl)methyl]-2-fluoro-4-[5-(trifluoromethyl)-1,2,4-oxadiazol-3-yl]benzamide] | 127.8 to 130.8 °C | ≥ 80 | ≥ 80 | ≥ 80 | ≥ 80 | ≥ 80
CC(C)CNC(=O)c1ccc(-c2noc(C(F)(F)F)n2)cc1F [Compound 3b.5, 2-fluoro-N-isobutyl-4-[5-(trifluoromethyl)-1,2,4-oxadiazol-3-yl]benzamide] | 126.6 to 128.3 °C | ≥ 80 | ≥ 80 | ≥ 80 | ≥ 80 | ≥ 80

Further lines, with some results ahead:

melting point | SMILES | pest or weed control at 200 ppm [1] [%] | pest or weed control at 200 ppm [2] [%] | pest or weed control at 200 ppm (Phakopsora pachyrhizi) [%] | pest or weed control at 100 ppm (Uromyces viciae-fabae) [%] | inhibition at 20 ppm [3] [%]
146 to 147.7 °C | O=C(NCc1ccccc1)c1ccc(-c2noc(C(F)(F)F)n2)cc1F [Compound 4b.6, N-benzyl-2-fluoro-4-[5-(trifluoromethyl)-1,2,4-oxadiazol-3-yl]benzamide] | ≥ 80 | ≥ 80 | ≥ 80 | ≥ 80 | 
135 to 136 °C and 135 to 146 °C | C=CCNC(=O)c1ccc(-c2noc(C(F)(F)F)n2)cc1 [Compound 3a.1, N-allyl-4-[5-(trifluoromethyl)-1,2,4-oxadiazol-3-yl]benzamide] | ≥ 80 | ≥ 80 | ≥ 80 | ≥ 80 | ≥ 80
104 to 105.1 °C | CC#CC(C)(C)NC(=O)c1ccc(-c2noc(C(F)(F)F)n2)cc1 [Compound 3a.5, N-(1,1-dimethylbut-2-ynyl)-4-[5-(trifluoromethyl)-1,2,4-oxadiazol-3-yl]benzamide] | ≥ 80 | ≥ 80 | ≥ 80 | ≥ 80 | 
135 to 141 °C | Cc1ccccc1CNC(=O)c1ccc(-c2noc(C(F)(F)F)n2)cc1 [Compound 4a.4, N-(o-tolylmethyl)-4-[5-(trifluoromethyl)-1,2,4-oxadiazol-3-yl]benzamide] | ≥ 80 | ≥ 80 | ≥ 80 | ≥ 80 | ≥ 80
125 to 128 °C | CN(C(=O)c1ccc(-c2noc(C(F)(F)F)n2)cc1)c1ncn[nH]1 [Compound 5a.5, N-methyl-N-(1H-1,2,4-triazol-5-yl)-4-[5-(trifluoromethyl)-1,2,4-oxadiazol-3-yl]benzamide] | ≥ 80 | ≥ 80 | ≥ 80 | ≥ 80 | ≥ 80
142.7 to 143 °C | O=C(NCc1cccs1)c1ccc(-c2noc(C(F)(F)F)n2)cc1F [Compound 5b.1, 2-fluoro-N-(2-thienylmethyl)-4-[5-(trifluoromethyl)-1,2,4-oxadiazol-3-yl]benzamide] | ≥ 80 | ≥ 80 | ≥ 80 | ≥ 80 | 
130 to 135 °C | CC(C)(CO)NC(=O)c1ccc(-c2noc(C(F)(F)F)n2)cc1 [Compound 3a.17, N-(2-hydroxy-1,1-dimethyl-ethyl)-4-[5-(trifluoromethyl)-1,2,4-oxadiazol-3-yl]benzamide] | ≥ 80 | ≥ 80 |  | ≥ 80 | ≥ 80
168.5 to 170 °C | C#CCNC(=O)c1ccc(-c2noc(C(F)(F)F)n2)cc1 [Compound 3a.2, N-prop-2-ynyl-4-[5-(trifluoromethyl)-1,2,4-oxadiazol-3-yl]benzamide] | ≥ 80 | ≥ 80 | ≥ 80 | ≥ 80 | ≥ 80
132 to 136 °C | O=C(NCc1ccccc1F)c1ccc(-c2noc(C(F)(F)F)n2)cc1F [Compound 4b.1, 2-fluoro-N-[(2-fluorophenyl)methyl]-4-[5-(trifluoromethyl)-1,2,4-oxadiazol-3-yl]benzamide] | ≥ 80 |  | ≥ 80 | ≥ 80 | ≥ 80
128.2 to 129.4 °C | O=C(NCCc1ccc(F)cc1)c1ccc(-c2noc(C(F)(F)F)n2)cc1F [Compound 4b.7, 2-fluoro-N-[2-(4-fluorophenyl)ethyl]-4-[5-(trifluoromethyl)-1,2,4-oxadiazol-3-yl]benzamide] | ≥ 80 |  | ≥ 80 | ≥ 80 | ≥ 80
